According to patent publication US12228580B2, “Methods of assigning a COVID pathological type based on a cytokine/chemokine panel” (IncellDx, Inc., priority 2020, dated 2025):

Key:
[1] = test system: Long Hauler patients suffering from chronic COVID-19; test: Treatment of Long Hauler patients for chronic COVID-19: symptoms; type: in vivo, human; settings: 300 mg twice a day for 2 weeks
Protocol: (§1) Long Hauler patients suffering from chronic COVID-19 were treated for 2 weeks with 300 mg of Maraviroc (SELZENTRY®) twice a day. […] The results are provided below, which provide patient profiles and LHI (long haul index) as determined using the panel described in the preceding example. LHI is also referred to as “Long Hauler Score” or S1, where S1=(IFN-gamma+IL-2)/CCL4-MIP-1β.

[2] = test system: plasma cytokines/chemokines of Chronic COVID patients; test: 14-plex cytokine/chemokine panel in plasma and long hauler index (S1) of treated Chronic COVID patients; type: in vivo, human; settings: 300 mg twice a day for 2 weeks; for S1 (long haul index, LHI; (IFN-gamma+IL-2)/CCL4-MIP-1β): Normals 0.1
Excerpt: Fresh plasma was used for cytokine quantification using a customized 14-plex bead based flow cytometric assay (IncelIKINE, IncellDx, Inc) on a CytoFlex flow cytometer as previously described using the following analytes: ‘TNF-α’, ‘IL-4’, ‘IL-13’, ‘IL-2’, ‘GM-CSF’, ‘sCD40L’, ‘CCL5 (RANTES)’, ‘CCL3 (MIP-1α)’, ‘IL-6’, ‘IL-10’, ‘IFN-γ’, ‘VEGF’, ‘IL-8’, and ‘CCL4 (MIP-1β) (Patterson et al., “CCR5 inhibition in Critical COVID-19 Patients Decreases Inflammatory Cytokines, Increases CD8 T-Cells, and Decreases SARS-CoV2 RNA in Plasma by Day 14”, Int J Infect Dis (2020) doi: 10.1016/j.ijid.2020.10.101). For each patient sample, 25 μL of plasma was used in each well of a 96-well plate. Standard curves with serial 6-point dilutions of antigen were run on each plate for each cytokine. Raw data was analyzed using LegendPlex software (Biolegend, Inc San Diego Calif.). Samples were run in duplicate.
as §1

For Maraviroc, the “symptoms in long haulers” value [1] was “alleviated or completely resolved symptoms”, the “CCL5/RANTES in Chronic COVID patients successfully treated” value ([2]; Chronic COVID patients) was “Decreased CCL5/RANTES in Chronic COVID patients successfully treated” and the “long hauler Indices (LHI, S1)” value ([2]; Long Hauler patients) was “reduced”. The “S1 (long haul index, LHI; (IFN-gamma+IL-2)/CCL4-MIP-1β)” value ([2]; patient two, second sample (AB2), first sample AB1 4.0) was 0.3, the GM-CSF ([2]; patient two, second sample (AB2), first sample AB1 6.02) was 15.09 pg/mL and the TNF-α ([2]; patient two, second sample (AB2), first sample AB1 7.75) was 17.13 pg/mL. For the same substance, the IL-10 ([2]; patient two, second sample (AB2), first sample AB1 7.90) was less than 0.61 pg/mL, the IL-6 ([2]; patient two, second sample (AB2), first sample AB1 10.88) was less than 0.6 pg/mL and the IL-4 ([2]; patient two, second sample (AB2), first sample AB1 11.06) was 4.12 pg/mL. The IL-2 ([2]; patient two, second sample (AB2), first sample AB1 12.57) was 2.15 pg/mL, the “CCL4 (MIP-1β)” value ([2]; patient two, second sample (AB2), first sample AB1 15.52) was 8.43 pg/mL and the IFN-γ ([2]; patient two, second sample (AB2), first sample AB1 48.78) was less than 0.92 pg/mL. The VEGF ([2]; patient two, second sample (AB2), first sample AB1 60.41) was 22.98 pg/mL, the “CCL3 (MIP-1α)” value ([2]; patient two, second sample (AB2), first sample AB1 87.65) was less than 1.22 pg/mL and the “CCL5 (RANTES)” value ([2]; patient two, second sample (AB2), first sample AB1 13082.39) was 12261.36 pg/mL. The sCD40L ([2]; patient two, second sample (AB2), first sample AB1 13488.) was 12631. pg/ml, the IL-13 ([2]; patient two, second sample (AB2), first sample AB1 <3.07) was 4.35 pg/mL and the IL-8 ([2]; patient two, second sample (AB2), first sample AB1 <15.74) was 18.37 pg/mL. For the same substance, the “CCL4 (MIP-1β)” value ([2]; unlabelled patient, second line, first line 3.62) was 9.79 pg/mL, the IL-13 ([2]; unlabelled patient, second line, first line 5.56) was 4.22 pg/mL and the GM-CSF ([2]; unlabelled patient, second line, first line 10.40) was 9.07 pg/mL. For the same substance, the “S1 (long haul index, LHI; (IFN-gamma+IL-2)/CCL4-MIP-1β)” value ([2]; unlabelled patient, second line, first line 11.4) was 1.3, the TNF-α ([2]; unlabelled patient, second line, first line 17.86) was 17.50 pg/mL and the IL-2 ([2]; unlabelled patient, second line, first line 33.94) was 4.89 pg/mL. For the same substance, the VEGF ([2]; unlabelled patient, second line, first line 39.00) was 31.62 pg/mL, the sCD40L ([2]; unlabelled patient, second line, first line 8980.) was 41374. pg/ml and the “CCL5 (RANTES)” value ([2]; unlabelled patient, second line, first line 14334.86) was 10011.91 pg/mL. For the same substance, the IL-10 ([2]; unlabelled patient, second line, first line <1.20) was less than 2.49 pg/mL, the IL-8 ([2]; unlabelled patient, second line, first line <3.82) was less than 9.98 pg/mL and the IL-6 ([2]; unlabelled patient, second line, first line <4.66) was less than 3.60 pg/mL. The IL-4 ([2]; unlabelled patient, second line, first line <5.02) was less than 1.22 pg/mL, the IFN-γ ([2]; unlabelled patient, second line, first line <7.30) was less than 7.77 pg/mL and the “CCL3 (MIP-1α)” value ([2]; unlabelled patient, second line, first line <34.82) was less than 45.08 pg/mL.
